The assay has as its target T1, NACHT, LRR and PYD domains-containing protein 1 (Homo sapiens, UniProt Q9C000).
T1 sequence (Q9C000 whole entry): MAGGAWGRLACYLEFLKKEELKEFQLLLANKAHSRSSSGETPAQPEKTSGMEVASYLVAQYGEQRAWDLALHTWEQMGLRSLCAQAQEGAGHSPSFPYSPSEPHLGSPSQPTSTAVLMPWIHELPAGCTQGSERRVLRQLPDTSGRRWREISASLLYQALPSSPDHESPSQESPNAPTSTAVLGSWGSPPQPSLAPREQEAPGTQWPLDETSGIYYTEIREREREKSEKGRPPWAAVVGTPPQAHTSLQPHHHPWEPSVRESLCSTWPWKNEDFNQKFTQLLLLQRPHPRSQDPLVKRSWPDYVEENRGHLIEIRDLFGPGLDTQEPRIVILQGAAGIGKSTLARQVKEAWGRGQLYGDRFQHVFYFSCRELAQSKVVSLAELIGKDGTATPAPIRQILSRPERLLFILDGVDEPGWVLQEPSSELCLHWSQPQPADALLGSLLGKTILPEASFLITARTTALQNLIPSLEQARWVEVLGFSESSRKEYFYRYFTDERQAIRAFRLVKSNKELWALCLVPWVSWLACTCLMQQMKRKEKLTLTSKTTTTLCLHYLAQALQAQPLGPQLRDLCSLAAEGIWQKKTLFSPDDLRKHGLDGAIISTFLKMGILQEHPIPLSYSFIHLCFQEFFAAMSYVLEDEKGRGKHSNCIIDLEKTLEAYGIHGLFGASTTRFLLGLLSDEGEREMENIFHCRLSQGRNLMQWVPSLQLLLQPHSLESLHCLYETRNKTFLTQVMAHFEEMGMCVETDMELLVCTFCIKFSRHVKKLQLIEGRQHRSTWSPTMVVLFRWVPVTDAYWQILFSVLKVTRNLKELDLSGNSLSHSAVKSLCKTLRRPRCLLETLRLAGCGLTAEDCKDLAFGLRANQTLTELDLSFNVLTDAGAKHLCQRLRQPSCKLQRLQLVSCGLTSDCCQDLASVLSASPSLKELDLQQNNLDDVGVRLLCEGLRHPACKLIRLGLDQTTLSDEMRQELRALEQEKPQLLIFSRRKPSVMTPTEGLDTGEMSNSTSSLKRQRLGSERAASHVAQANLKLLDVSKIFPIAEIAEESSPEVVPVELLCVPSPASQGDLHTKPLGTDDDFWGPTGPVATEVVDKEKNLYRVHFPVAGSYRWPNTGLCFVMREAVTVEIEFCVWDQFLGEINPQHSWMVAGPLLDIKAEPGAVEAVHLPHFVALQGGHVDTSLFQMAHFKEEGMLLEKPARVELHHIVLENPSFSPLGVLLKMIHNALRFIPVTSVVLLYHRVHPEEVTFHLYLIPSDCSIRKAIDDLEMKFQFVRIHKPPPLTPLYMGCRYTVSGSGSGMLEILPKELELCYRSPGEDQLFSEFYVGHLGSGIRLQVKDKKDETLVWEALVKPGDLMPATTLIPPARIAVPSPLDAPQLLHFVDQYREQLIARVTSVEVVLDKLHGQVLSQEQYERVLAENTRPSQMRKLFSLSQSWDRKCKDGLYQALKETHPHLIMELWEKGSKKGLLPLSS
Description: NALP1 inhibitors in yeast, dose response, luminescent (AID 488860).

Structures are written as SMILES.

As for `Oc1cc(Sc2nnnn2-c2ccccc2)c(O)n1-c1cccc(Cl)c1`, the IC50 worked out at 5.83 µM.
The molecule `COc1ccccc1-n1c(O)c2c(c1O)CC(c1ccccc1)CC2` (stereo not drawn) had an IC50 greater than 100 µM.
Molecule `Cc1ccc(-n2c(O)cc(Sc3ccccc3C(=O)O)c2O)cc1` came in with an IC50 of 34.4 µM.

As a reminder, the IC50 is the concentration needed to halve the response being measured.

Values taken from BindingDB's records for doi:10.7270/Q22Z140X (Burnham Center For Chemical Genomics, 2010).
